Measured values as given in patent US5922580A, “Non-reducing saccharide-forming enzyme, its preparation and uses” (priority 1992, dated 1999).

Experiments:
[1] = Hygroscopicity of product; type: physicochemical; conditions: powdery product
[2] = Reducing power by Somogyi-Nelson's method expressed as DE; type: physicochemical; conditions: high-purity saccharide preparations of Experiment 4
Description: The reducing powders of these novel saccharides were determined on the Somogyi-Nelson's method and expressed by DE (dextrose equivalent).

[3] = target: T1, α-glucosidase specimen derived from rice (Oryza sativa subsp. japonica, UniProt Q653V7); assay: Hydrolysis by α-glucosidase; type: biochemical; conditions: 50 mM acetate buffer pH 4.0, 37° C., 18 hours
T1 construct: purchased Sigma Chemical Company, St. Louis, USA; host or cells: rice
Description: (§1) The enzymatic reaction with the α-amylase was as follows: Dissolving 10 mg of a substrate in one ml of 50 mM phosphate buffer (pH 6.9), mixing the resultant solution with one unit of the α-amylase, and incubating the resultant mixture at 37° C. for 18 hours. The enzymatic reaction with the α-glucosidase was conducted under the same conditions as in the case of α-amylase except that 50 mM acetate buffer (pH 4.0) was used as a buffer. The enzymatic reaction with the rat intestinal acetone powder was carried out under the same conditions as in the case of α-amylase except that 50 mM maleate buffer (pH 6.0) was used as a buffer.

[4] = tested on: 7-week old dd-strain mice; assay: Acute toxicity test, oral; type: in vivo
[5] = target: T2, α-amylase specimen derived from pig pancreas (Sus scrofa, UniProt P00690); assay: Hydrolysis by α-amylase; type: biochemical; design: Saccharide composition of hydrolysate: P I / Saccharide composition of hydrolysate: P II / Saccharide composition of hydrolysate: G3 (maltotriose) / Saccharide composition of hydrolysate: G2 (maltose) / Saccharide composition of hydrolysate: G1 (glucose): unit not given here
T2 construct: purchased Sigma Chemical Company, St. Louis, USA; host or cells: pig pancreas
T2 sequence (P00690 16-511): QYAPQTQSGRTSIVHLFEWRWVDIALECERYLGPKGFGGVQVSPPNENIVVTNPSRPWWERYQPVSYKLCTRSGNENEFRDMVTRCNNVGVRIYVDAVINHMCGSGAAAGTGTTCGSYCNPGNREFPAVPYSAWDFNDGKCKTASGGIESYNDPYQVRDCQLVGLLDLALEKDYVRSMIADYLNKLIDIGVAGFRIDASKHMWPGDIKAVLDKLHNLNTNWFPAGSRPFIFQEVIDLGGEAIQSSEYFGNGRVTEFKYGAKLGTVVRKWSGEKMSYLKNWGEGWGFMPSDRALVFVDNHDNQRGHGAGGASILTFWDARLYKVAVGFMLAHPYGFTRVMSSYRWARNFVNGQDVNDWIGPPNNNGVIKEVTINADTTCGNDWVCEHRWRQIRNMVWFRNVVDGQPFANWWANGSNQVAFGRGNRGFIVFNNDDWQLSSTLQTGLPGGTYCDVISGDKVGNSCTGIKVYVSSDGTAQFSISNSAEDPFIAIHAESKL
Description: as §1

β-amylase = β-amylase (Glycine max, UniProt P10538); assay: Hydrolysis by β-amylase; type: biochemical; conditions: similarly as with glucoamylase
[6] = Maillard reaction with glycine; type: physicochemical
Description: As a control, maltotriose, maltotetraose, maltopentaose, maltohexaose and maltoheptaose as a material for the saccharide preparations were similarly treated as above, and measured their absorbances were measured at a wave length of 480 nm.

glucoamylase = assay: Enzymatic hydrolysis by glucoamylase; type: biochemical
Description: Fifty mg aliquots of non-reducing saccharides P I, P II, P III, P IV and P V in Experiment 4 were respectively dissolved in one ml of 50 mM acetate buffer (pH 4.5), admixed with one unit of glucoamylase commercialized by Seikagaku-Kogyo Co., Ltd., Tokyo, Japan, to effect enzymatic hydrolysis at 40° C. for 6 hours. The only saccharides detected in every resultant mixture on HPLC analysis were glucose and trehalose.

[7] = tested on: rat intestinal acetone powder; assay: Hydrolysis by rat intestinal acetone powder; type: in vitro ADME; conditions: 50 mM maleate buffer pH 6.0, 37° C., 18 hours
Description: as §1

[8] = target: T3, trehalase derived from pig kidney (Sus scrofa, UniProt I3LIR5); assay: Hydrolysis by trehalase; type: biochemical; conditions: one unit trehalase, pH 5.7, 37° C., 18 hours; HPLC
T3 construct: purchased Sigma Chemical Company, St. Louis, USA; host or cells: pig kidney
T3 sequence (I3LIR5 24-583): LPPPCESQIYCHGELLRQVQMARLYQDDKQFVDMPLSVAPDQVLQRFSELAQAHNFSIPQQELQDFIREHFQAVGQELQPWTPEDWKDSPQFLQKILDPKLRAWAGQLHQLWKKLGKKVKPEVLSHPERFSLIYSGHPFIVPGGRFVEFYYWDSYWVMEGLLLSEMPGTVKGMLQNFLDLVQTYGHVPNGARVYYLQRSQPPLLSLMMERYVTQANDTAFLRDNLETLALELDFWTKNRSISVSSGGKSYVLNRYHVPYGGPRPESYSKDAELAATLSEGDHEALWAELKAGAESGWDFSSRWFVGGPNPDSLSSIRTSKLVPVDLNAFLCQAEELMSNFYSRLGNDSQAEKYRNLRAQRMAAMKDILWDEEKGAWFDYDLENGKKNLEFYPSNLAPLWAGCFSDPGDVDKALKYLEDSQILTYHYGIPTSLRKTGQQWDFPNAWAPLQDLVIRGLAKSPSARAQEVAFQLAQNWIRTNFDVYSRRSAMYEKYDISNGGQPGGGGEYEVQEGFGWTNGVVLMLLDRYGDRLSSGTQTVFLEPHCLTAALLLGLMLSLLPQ

[9] = α-amylase, 10 mg/ml, pH 6.9, 37° C., 18 hours, HPLC
[10] = 50 mg in 1 ml 50 mM acetate buffer pH 4.5, one unit glucoamylase, 40° C., 6 hours, HPLC

T1 sequence (Q653V7 34-885): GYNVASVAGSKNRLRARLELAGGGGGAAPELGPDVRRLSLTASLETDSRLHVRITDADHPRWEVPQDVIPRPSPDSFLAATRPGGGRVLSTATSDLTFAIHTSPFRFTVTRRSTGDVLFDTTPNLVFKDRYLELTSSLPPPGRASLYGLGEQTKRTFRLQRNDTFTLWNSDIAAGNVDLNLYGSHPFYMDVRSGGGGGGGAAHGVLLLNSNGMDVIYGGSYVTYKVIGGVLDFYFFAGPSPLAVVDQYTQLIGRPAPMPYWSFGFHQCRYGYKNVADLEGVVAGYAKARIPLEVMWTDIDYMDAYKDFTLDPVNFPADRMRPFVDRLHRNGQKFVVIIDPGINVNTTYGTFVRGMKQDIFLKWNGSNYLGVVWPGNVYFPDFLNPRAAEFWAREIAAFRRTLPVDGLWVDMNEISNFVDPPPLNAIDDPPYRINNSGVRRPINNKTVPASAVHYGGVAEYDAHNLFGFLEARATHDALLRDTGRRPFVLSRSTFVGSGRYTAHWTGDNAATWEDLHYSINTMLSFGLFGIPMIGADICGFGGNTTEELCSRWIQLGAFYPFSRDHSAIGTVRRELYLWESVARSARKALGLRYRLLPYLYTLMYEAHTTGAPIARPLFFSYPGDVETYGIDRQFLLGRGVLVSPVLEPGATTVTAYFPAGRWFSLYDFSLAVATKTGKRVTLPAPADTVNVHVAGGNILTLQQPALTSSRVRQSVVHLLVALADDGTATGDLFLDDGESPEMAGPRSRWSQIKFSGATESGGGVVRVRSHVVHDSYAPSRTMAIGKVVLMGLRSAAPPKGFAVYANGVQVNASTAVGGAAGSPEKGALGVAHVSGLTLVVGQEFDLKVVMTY
Chain of β-amylase (P10538 whole entry, species assumed): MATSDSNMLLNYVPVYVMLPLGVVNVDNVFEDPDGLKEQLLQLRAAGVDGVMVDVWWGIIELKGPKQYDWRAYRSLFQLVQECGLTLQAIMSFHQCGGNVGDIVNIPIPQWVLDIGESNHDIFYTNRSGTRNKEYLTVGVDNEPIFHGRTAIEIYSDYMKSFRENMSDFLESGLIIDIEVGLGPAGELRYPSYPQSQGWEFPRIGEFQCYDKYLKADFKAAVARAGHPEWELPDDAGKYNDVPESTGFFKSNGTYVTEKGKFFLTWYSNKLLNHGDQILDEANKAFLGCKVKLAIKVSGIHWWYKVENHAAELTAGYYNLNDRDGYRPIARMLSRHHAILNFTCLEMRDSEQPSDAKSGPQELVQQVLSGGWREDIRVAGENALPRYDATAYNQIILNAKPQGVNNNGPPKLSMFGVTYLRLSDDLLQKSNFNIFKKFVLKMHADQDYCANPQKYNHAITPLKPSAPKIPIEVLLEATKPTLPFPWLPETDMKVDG

Structure (SMILES): OC[C@H]1O[C@H](O[C@H]2O[C@H](CO)[C@@H](O)[C@H](O)[C@H]2O)[C@H](O)[C@@H](O)[C@@H]1O [Example A-6, trehalose]
- Hygroscopicity [1]: no substantial hygroscopicity

Structure (SMILES): OC[C@H]1O[C@H](O[C@H]2O[C@H](CO)[C@@H](O[C@H]3O[C@H](CO)[C@@H](O[C@H]4O[C@H](CO)[C@@H](O[C@H]5O[C@H](CO)[C@@H](O[C@H]6O[C@H](CO)[C@@H](O[C@H]7O[C@H](CO)[C@@H](O)[C@H](O)[C@H]7O)[C@H](O)[C@H]6O)[C@H](O)[C@H]5O)[C@H](O)[C@H]4O)[C@H](O)[C@H]3O)[C@H](O)[C@H]2O)[C@H](O)[C@@H](O)[C@@H]1O [P V, α-maltopentaosyl trehalose]
- DE [2]: 0.23
- Saccharide composition of hydrolysate with α-glucosidase: Glucose [3]: 71.4%
- Saccharide composition of hydrolysate with α-glucosidase: Other saccharides [3]: 0.3%
- Saccharide composition of hydrolysate with α-glucosidase: Trehalose [3]: 28.3%
- LD50 ([4]; mouse, in vivo, po): ≥ 50000 mg/kg
- Death of mice ([4]; oral, highest possible doses): no mouse died
- Hydrolysis by α-amylase ([5]; conclusion from Table 6): hydrolyzed by α-amylase into lower molecular weight oligosaccharides
- Saccharide composition of hydrolysate: G1 (glucose) [5, 9]: 1.0
- Saccharide composition of hydrolysate: G2 (maltose) [5, 9]: 8.6
- Saccharide composition of hydrolysate: G3 (maltotriose) [5, 9]: 35.3
- Saccharide composition of hydrolysate: P I [5, 9]: 10.2
- Saccharide composition of hydrolysate: P II [5, 9]: 44.9
- Hydrolysis by β-amylase (β-amylase): two moles of maltose and one mole of P I
- Coloration degree (480 nm) ([6]; 1% glycine, 10% saccharide, 50 mM phosphate buffer pH 7.0, 100° C. for 90 min, absorbance in 1-cm cell): 0.015
- Coloration degree relative to corresponding material maltooligosaccharide ([6]; Maillard reaction, 480 nm): 3-6%
- Glucose (glucoamylase; [10]): 72.9%
- Trehalose (glucoamylase; [10]): 27.1%
- Molecular ratio (Glucose/Trehalose) (glucoamylase; glucoamylase hydrolysate): 5.11
- Saccharide composition of hydrolysate with rat intestinal acetone powder: Glucose [7]: 73.4%
- Saccharide composition of hydrolysate with rat intestinal acetone powder: Other saccharides [7]: 0.1%
- Saccharide composition of hydrolysate with rat intestinal acetone powder: Trehalose [7]: 26.5%

Structure (SMILES): OC[C@H]1O[C@H](O[C@H]2O[C@H](CO)[C@@H](O)[C@H](O)[C@H]2O)[C@H](O)[C@@H](O)[C@@H]1O [trehalose, α, α-trehalose]
- Hydrolysis by trehalase [8]: hydrolyzed by trehalase into glucose molecules
